Measurements reported in PubChem BioAssay AID2060512 (Molecular Pharmacology Branch, DTP, NCI, 2025).
Several values for one entry are separate records, joined by “and”; a condition that tells them apart may be missing. Identical values can stand only once. Values belong to the compound of their own block, whether it stands above or below them.

Test system: 186277-243-T-J2-PDC complex spheroid viability
Assay: Anticancer human tumor 186277-243-T-J2-PDC patient-derived colon adenocarcinoma cell line growth inhibition [GQUAD]
Details: for viability, T/C: stronger effect = lower value
From the text: DNA G-quadruplex Stabilizer Agents in Combinations in Complex Spheroids
A high-throughput screen of multi-cell type tumor spheroids was designed to identify active combinations of DNA G-quadruplex stabilizer agents and targeted small molecules. Complex spheroids include a stromal component modeled by human endothelial cells (HUVEC) and fibroblasts modeled by human mesenchymal stem cells (MSCs). The concentration ranges selected for each drug and investigational agent were based upon clinically achievable concentrations if the clinical Cmax of the agent was known.
Compounds. The drugs and investigational agents: pidnarulex (CX-5461; NSC782164), APTO-253 (NSC789042), BRACO-19 (NSC847499), peposertib (NSC802822), ceralasertib (NSC780249), elimusertib (NSC800525), camonsertib (NSC841442), AZD-1390 (NSC803789), olaparib (NSC753686), talazoparib (NSC767125), ART-558 (NSC835418), sotorasib (NSC818433), MRTX-1133 (NSC836407), SN-38 (NSC673596), topotecan (NSC609699), etoposide (NSC141540), doxorubicin (NSC123127), gemcitabine (NSC613327), 5-fluorouracil (NSC19893), paclitaxel (NSC125973), vemurafenib (NSC761431), panobinostat (NSC761190), R-306465 (JNJ-16241199; NSC773264), adavosertib (NSC754352), TP-3654 (NSC805149), carboplatin (NSC241240), KSQ-4279 (NSC840948), and staurosporine (NSC755774) were obtained from the National Cancer Institute (NCI) Developmental Therapeutics Program Chemical Repository (34). The FDA-approved anticancer drug set is available from the NCI Developmental Therapeutics Program. […] The stock solutions were prepared in dimethyl sulfoxide (DMSO, Sigma-Aldrich, St. Louis, MO, cat. D2650) at 800-fold the tested concentration and stored at -70 degrees C prior to their use. All drugs and investigational agents were tested over a range starting from a high concentration at or near the clinical Cmax and decreasing in half-log increments. If the clinical Cmax for an agent had not been determined, the highest concentration tested was 10 microM.
2.3 Cell Culture. All cells were maintained in an incubator at 37 degrees C and 5% CO2 with 95% humidity. The PDC lines were cultured according to standard operating procedures established by the NCI PDMR. All PDCs were thawed and cultured in Matrigel-coated flasks prepared with a working solution of 1X Ham's F-12 nutrient mix, without supplementation (Invitrogen, cat. 11765054), 100 U/mL penicillin-streptomycin (Invitrogen, cat. 15140122), and 2.5% Matrigel (Corning Inc., cat. 354248) for the first three passages. The 857933-349-R-J2-PDC line was cultured in 6C/Colon 1B media, which includes advanced DMEM/F-12 (Thermo Fisher Scientific, cat. 12634028), 10 mM HEPES (Thermo Fisher Scientific, cat. 15630080), 1X GlutaMAX supplement (Thermo Fisher Scientific, cat. 35050061), 0.1 mg/mL primocin (InvivoGen, cat. ant-pm-2), 10% defined fetal bovine serum, heat inactivated (HyClone Laboratories Inc., cat. SH30070.03HI), 50% L-WRN conditioned media (ATCC, cat. CRL-3276), 1.25 mM N-Acetyl-L-cysteine (Sigma-Aldrich, cat. A9165), 10 mM nicotinamide (Sigma-Aldrich, cat. N0636), 1X B-27 supplement (Thermo Fisher Scientific, cat. 17504044), 1X N-2 supplement (Thermo Fisher Scientific, cat. 17502048), 10 microM Y-27632 dihydrochloride (Tocris Bioscience, cat. 1254), and 50 ng/mL human EGF recombinant protein (Thermo Fisher Scientific, cat. PHG0311). The 485176-168-R4-J1-PDC line was cultured in Panc media, which includes all 6C/Colon 1B media components plus 100 ng/mL human FGF-10 (Thermo Fisher Scientific, cat. 100-26), 500 nM SB-431542 (Selleckchem, cat. S1067), and gastrin (Tocris, cat. 3006).
[…]
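Note: spheroids exposed to drugs for 7 days.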
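Throughout, for viability, T/C: 100% = DMSO vehicle control viability.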

SMILES: C=CCn1c(=O)c2cnc(Nc3ccc(N4CCN(C)CC4)cc3)nc2n1-c1cccc(C(C)(C)O)n1
viability, T/C (compound 0.0316 µM): 117% and 101% and 93.2%
viability, T/C (compound 0.1 µM): 73.4% and 86.2% and 76.1%
viability, T/C (compound 0.316 µM): 13.5% and 16.9% and 22.7%
viability, T/C (compound 1 µM): 9.12% and 11.3% and 11.6%
viability, T/C (compound 3.16 µM): 8.45% and 9.04% and 11%
viability, T/C (compound 10 µM): 10.8% and 11.9% and 14.4%
IC50 (curve of compound): 157 nM and 182 nM and 175 nM

SMILES: CC(=O)O[C@H]1C(=O)[C@@]2(C)[C@H]([C@H](OC(=O)c3ccccc3)[C@]3(O)C[C@H](OC(=O)[C@H](O)[C@@H](NC(=O)c4ccccc4)c4ccccc4)C(C)=C1C3(C)C)[C@]1(OC(C)=O)CO[C@@H]1C[C@@H]2O
viability, T/C (compound 0.0316 µM): 11.9% and 17.4% and 29%
viability, T/C (compound 0.1 µM): 4.45% and 7.62% and 9.72%
viability, T/C (compound 0.316 µM): 5.05% and 6.94% and 9.26%
viability, T/C (compound 1 µM): 5.03% and 4.51% and 8.19%
viability, T/C (compound 3.16 µM): 4.85% and 4.62% and 5.67%
viability, T/C (compound 10 µM): 4.7% and 4.26% and 6.48%
IC50 (curve of compound): < 31.6 nM

SMILES: CC(C)(O)C1CCC(Nc2ccc3ncc(-c4cccc(C(F)(F)F)c4)n3n2)CC1 (centres undefined)
viability, T/C (compound 0.0316 µM): 82.3% and 96.5% and 103%
viability, T/C (compound 0.1 µM): 106% and 97.7% and 92.2%
viability, T/C (compound 0.316 µM): 101% and 99.8% and 99.6%
viability, T/C (compound 1 µM): 83.7% and 85.5% and 105%
viability, T/C (compound 3.16 µM): 55.3% and 49% and 56.7%
viability, T/C (compound 10 µM): 46.4% and 46% and 50%
IC50 (curve of compound): 6250 nM and 3040 nM and > 10000 nM

SMILES: CCCS(=O)(=O)Nc1ccc(F)c(C(=O)c2c[nH]c3ncc(-c4ccc(Cl)cc4)cc23)c1F
viability, T/C (compound 0.0316 µM): 111% and 99.7% and 103%
viability, T/C (compound 0.1 µM): 114% and 101% and 82.2%
viability, T/C (compound 0.316 µM): 91.7% and 97.9% and 81.8%
viability, T/C (compound 1 µM): 92.4% and 78.4% and 81.4%
viability, T/C (compound 3.16 µM): 94.7% and 87.6% and 78.3%
viability, T/C (compound 10 µM): 22.4% and 25.9% and 24.6%
IC50 (curve of compound): 6350 nM and 6160 nM and 5690 nM

SMILES: CC[C@@]1(O)C(=O)OCc2c1cc1n(c2=O)Cc2cc3c(CN(C)C)c(O)ccc3nc2-1
viability, T/C (compound 0.000999 µM): 105% and 97.5% and 100%
viability, T/C (compound 0.00316 µM): 97.5% and 99.2% and 96.2%
viability, T/C (compound 0.00999 µM): 97.4% and 111% and 103%
viability, T/C (compound 0.0316 µM): 87.6% and 77.7% and 96.6%
viability, T/C (compound 0.0999 µM): 72.4% and 55.3% and 59.9%
viability, T/C (compound 0.316 µM): 50.6% and 42.9% and 46.2%
IC50 (curve of compound): > 316 nM and 104 nM and 230 nM

SMILES: CCc1c2c(nc3ccc(O)cc13)-c1cc3c(c(=O)n1C2)COC(=O)[C@]3(O)CC
viability, T/C (compound 0.000999 µM): 88.2% and 83.6% and 97.2%
viability, T/C (compound 0.00316 µM): 72.1% and 57.3% and 65.1%
viability, T/C (compound 0.00999 µM): 50.2% and 50.4% and 45.2%
viability, T/C (compound 0.0316 µM): 30.8% and 29.4% and 34.3%
viability, T/C (compound 0.0999 µM): 21.3% and 14.5% and 21.4%
viability, T/C (compound 0.316 µM): 18.9% and 11.2% and 16.2%
IC50 (curve of compound): 9.82 nM and 7.08 nM and 7.82 nM

SMILES: CN(C)c1ccc(Nc2c3ccc(NC(=O)CCN4CCCC4)cc3nc3cc(NC(=O)CCN4CCCC4)ccc23)cc1
viability, T/C (compound 0.1 µM): 97.8% [middle of 12 runs]
viability, T/C (compound 0.316 µM): 101% [middle of 12 runs]
viability, T/C (compound 1 µM): 101% [middle of 12 runs]
viability, T/C (compound 10 µM): 99.7% [middle of 12 runs]
IC50 (compound alone, run of 04/22/2024): > 10000 nM

Now from value to compound, other results behind:

IC50 (curve of compound): 137 nM and 70.6 nM and 77.1 nM
SMILES: C#Cc1c(F)ccc2cc(O)cc(-c3ncc4c(N5CC6CCC(C5)N6)nc(OCC56CCCN5CC(F)C6)nc4c3F)c12 (centres undefined)
viability, T/C (compound 0.0316 µM): 99.9% and 94.8% and 64%
viability, T/C (compound 0.1 µM): 59.1% and 30.1% and 46.2%
viability, T/C (compound 0.316 µM): 26% and 13.2% and 19.2%
viability, T/C (compound 1 µM): 14.4% and 7.76% and 10.2%
viability, T/C (compound 3.16 µM): 17.8% and 7.17% and 7.07%
viability, T/C (compound 10 µM): 10.2% and 5.44% and 5.48%

IC50 (curve of compound): > 10000 nM
SMILES: C=CC(=O)N1CCN(c2nc(=O)n(-c3c(C)ccnc3C(C)C)c3nc(-c4c(O)cccc4F)c(F)cc23)C(C)C1 (centres undefined)
viability, T/C (compound 0.0316 µM): 91.3% and 93.7% and 101%
viability, T/C (compound 0.1 µM): 82.3% and 102% and 89.8%
viability, T/C (compound 0.316 µM): 94% and 91.1% and 104%
viability, T/C (compound 1 µM): 108% and 96.1% and 91.2%
viability, T/C (compound 3.16 µM): 92.6% and 117% and 98%
viability, T/C (compound 10 µM): 87.6% and 78.8% and 95.7%

IC50 (curve of compound): > 10000 nM
SMILES: CC(C)n1c(=O)n(C)c2cnc3cc(F)c(-c4ccc(OCCCN5CCCCC5)nc4)cc3c21
viability, T/C (compound 0.0316 µM): 99.3% and 98.7% and 80.8%
viability, T/C (compound 0.1 µM): 90.1% and 89.8% and 84.8%
viability, T/C (compound 0.316 µM): 106% and 104% and 82.1%
viability, T/C (compound 1 µM): 96.6% and 119% and 84.2%
viability, T/C (compound 3.16 µM): 104% and 106% and 97.2%
viability, T/C (compound 10 µM): 89.4% and 101% and 76%

IC50 (curve of compound): 53.3 nM and 48.9 nM and 44.7 nM
SMILES: CC1COCCN1c1cc(-c2ccnn2C)c2ccnc(-c3ccn[nH]3)c2n1 (centres undefined)
viability, T/C (compound 0.0316 µM): 81.1% and 73.3% and 66.4%
viability, T/C (compound 0.1 µM): 12.5% and 11.9% and 12.3%
viability, T/C (compound 0.316 µM): 7.41% and 7.05% and 7.85%
viability, T/C (compound 1 µM): 5.96% and 5.12% and 5.67%
viability, T/C (compound 3.16 µM): 5.8% and 4.75% and 4.94%
viability, T/C (compound 10 µM): 7.05% and 4.45% and 5.66%

IC50 (curve of compound): 43.7 nM and 45.3 nM and 33.4 nM
SMILES: CC1COCCN1c1cc(C2(O)CC3CCC(C2)O3)c2cnn(-c3ccn[nH]3)c2n1 (centres undefined)
viability, T/C (compound 0.0316 µM): 64.6% and 66.1% and 52.2%
viability, T/C (compound 0.1 µM): 13.1% and 14.8% and 10%
viability, T/C (compound 0.316 µM): 7.61% and 5.43% and 6.02%
viability, T/C (compound 1 µM): 4.72% and 5.45% and 4.44%
viability, T/C (compound 3.16 µM): 4.67% and 5.36% and 4.31%
viability, T/C (compound 10 µM): 3.02% and 2.97% and 3.42%

IC50 (curve of compound): 1080 nM and 775 nM and 990 nM
SMILES: CC1COCCN1c1cc(C2(S(C)(=N)=O)CC2)nc(-c2ccnc3[nH]ccc23)n1 (centres undefined)
viability, T/C (compound 0.0316 µM): 98.7% and 91.8% and 97.2%
viability, T/C (compound 0.1 µM): 84.2% and 100% and 98.6%
viability, T/C (compound 0.316 µM): 102% and 104% and 95.6%
viability, T/C (compound 1 µM): 52.7% and 36.2% and 49%
viability, T/C (compound 3.16 µM): 18.2% and 7.52% and 14.2%
viability, T/C (compound 10 µM): 6.83% and 5.23% and 6.65%
